Measured values: ChEMBL document CHEMBL1153137, “Improving the developability profile of pyrrolidine progesterone receptor partial agonists” (Bioorg Med Chem Lett, 2010)

Key:
in vivo [1] = conditions: rat, iv
in vivo [2] = conditions: rat, iv; remark: listed apart in the source
in vivo [3] = conditions: rat, iv; remark: listed apart in the source
in vivo [4] = conditions: rat, iv; remark: listed apart in the source
in vivo [5] = conditions: rat, po, 4.2 mg/kg

With `Cc1ccccc1CN(c1ccc(C#N)c(Cl)c1)[C@H]1CCN(S(C)(=O)=O)C1` the clearance (in vivo [1]) was 98 mL/min/kg, the Vd (in vivo [2]) was 12 L/kg and the half-life (in vivo [3]) was 1.6 h. For the same compound, the Cmax (in vivo [4]) was 221 ng/mL and the bioavailability (in vivo [5]) was 100%.
